Source: patent US11097023B1, “Pre-filled syringe containing sugammadex” (Par Pharmaceutical, Inc., priority 2020, dated 2021)

Tests used:
[1] = Thermal-forced degradation of sugammadex sodium (Example V); assay type: physicochemical; settings: solution in WFI, 60° C.
Method: To confirm that the impurities observed in Example III were at least in part a result of thermal degradation, sugammadex sodium as a solution in WFI was subjected to an elevated temperature of 60° C. for ten days. S-oxide diastereomer-1 impurity, s-oxide diastereomer-2 impurity, impurity at ˜1.12 RRT, mono chloro impurity, unknown impurities, and mono hydroxyl impurity concentrations were measured using HPLC technique as described in Example VII after the first, third, fifth, and tenth day.
(§1) For the following procedure, amber-colored glassware was used for all preparations. In addition, because sugammadex sodium is markedly hygroscopic when exposed to air at room temperature and when exposed to humidity, a relative humidity of less than 40% RH was maintained during weighing.
(§2) First, a buffer solution having a pH of 2.0 was prepared by weighing and transferring about 4.08 g of potassium dihydrogen phosphate (AR grade of equivalent) into 1000 mL water (HPLC Grade or Milli-Q) and mixing. The pH of the buffer solution was adjusted to 2.0±0.05 with concentrated ortho-phosphoric acid (HPLC grade or equivalent) and mixed well.
(§3) A mobile phase A was then prepared by transferring 950 mL of the buffer solution and 50 mL of methanol (HPLC grade or equivalent) into a bottle, mixing, and sonicating to degas. A mobile phase B was also prepared by transferring 300 mL of the buffer solution and 700 mL of acetonitrile (HPLC grade or equivalent) into a bottle, mixing, and sonicating to degas.
(§4) A standard solution (50 ppm) was also prepared by weighing and transferring 27.2 mg of sugammadex sodium standard into a 50 mL amber color volumetric flask. About 30 mL of 100% water (HPLC Grade or Milli-Q) was added, and the mixture was sonicated to dissolve. The solution was made up to the mark with 100% water (HPLC Grade or Milli-Q) and mixed well. Then, 5.0 mL of this solution was transferred to 50 mL amber color volumetric flasks, made up to the mark with 100% water (HPLC Grade or Milli-Q), and mixed well.
(§5) To prepare a sensitivity solution (5 ppm), 5.0 mL of the standard solution was transferred to a 50 mL amber volumetric flask, made-up to the mark with 100% water (HPLC Grade or Milli-Q), and mixed well.
(§6) A placebo solution was also prepared by weighing and transferring 1.0 g of placebo into a 20 mL amber color volumetric flask, diluting to 20 mL with 100% water (HPLC Grade or Milli-Q), and mixing well.
(§7) A sample solution (5000 ppm) was also prepared by weighing and transferring 1.0 g of the sample to be analyzed into a 20 mL amber color volumetric flask, diluting to 20 mL with 100% water (HPLC Grade or Milli-Q), and mixing well.
(§8) When performing the chromatographic procedure, for initial samples, two samples were prepared in duplicate. For stability samples, a single sample was prepared. In addition, any peak due to blank and/or placebo was disregarded, any peak below LOQ level was disregarded, and any peak corresponding to mono chloro impurity was disregarded.
(§9) The percent impurity was then calculated as follows:
(§10) [formula] where: A(Spl)=Peak response of impurity obtained from sample solution A(Std)=Average peak response of sugammadex from the standard solution Wt(Std)=Weight (mg) of sugammadex working standard. Wt(Spl)=Weight (g) of Sample LC=Label Claim (100 mg/ml sugammadex) D=Density of sample (mg/ml) P=Potency of the standard (Anhydrous basis+Solvent free) WC=Water content of sugammadex working standard. 2002.12=Molecular weight of sugammadex 2178.01=Molecular weight of sugammadex sodium
(§11) Total impurities were calculated by adding all known impurities (excluding mono hydroxy impurity) and all unknown impurities.

[2] = Oxidative-forced degradation of sugammadex sodium (Example VI); assay type: physicochemical
Method: To confirm that impurities observed in sugammadex sodium-containing solutions could be at least in part a result of oxidative degradation, sugammadex sodium as a solution in […] was subjected to an atmosphere of either 0.01% H2O2 for one hour or to an atmosphere of 0.002% H2O2 for five hours. S-oxide diastereomer-1 impurity, s-oxide diastereomer-2 impurity, impurity at ˜1.12 RRT, mono chloro impurity, unknown impurities, and mono hydroxyl impurity concentrations were measured using HPLC technique as described in Example VII after the first hour of 0.01% H2O2 exposure and after the first, fourth, and fifth hour of 0.002% H2O2 exposure.
as §1, §2, §3, §4, §5, §6, §7, §8, §9, §10, §11

O=C([O-])CCSC[C@H]1O[C@@H]2O[C@H]3[C@H](O)[C@@H](O)[C@@H](O[C@H]4[C@H](O)[C@@H](O)[C@@H](O[C@H]5[C@H](O)[C@@H](O)[C@@H](O[C@H]6[C@H](O)[C@@H](O)[C@@H](O[C@H]7[C@H](O)[C@@H](O)[C@@H](O[C@H]8[C@H](O)[C@@H](O)[C@@H](O[C@H]9[C@H](O)C(O)[C@@H](O[C@H]1[C@H](O)[C@H]2O)O[C@@H]9CSCCC(=O)[O-])O[C@@H]8CSCCC(=O)[O-])O[C@@H]7CSCCC(=O)[O-])O[C@@H]6CSCCC(=O)[O-])O[C@@H]5CSCCC(=O)[O-])O[C@@H]4CSCCC(=O)[O-])O[C@@H]3CSCCC(=O)[O-].[Na+].[Na+].[Na+].[Na+].[Na+].[Na+].[Na+].[Na+] (stereo partly drawn) [sugammadex sodium]
(Excluding Monohydroxy impurity) ([1]; after fifth day): 0.03 % impurity
Highest Unknown impurity ([1]; after fifth day): 7.18 % impurity
Impurity at ~1.12 RRT ([1]; after fifth day): 0.10 % impurity
Mono chloro impurity ([1]; after fifth day): 0.03 % impurity
Other total impurities ([1]; after fifth day): 0.80 % impurity
S-oxide diastereomer-1 impurity ([1]; after fifth day): 0.16 % impurity
S-oxide diastereomer-2 impurity ([1]; after fifth day): 0.21 % impurity
Total impurities ([1]; after fifth day): 8.48 % impurity
(Excluding Monohydroxy impurity) ([1]; after first day): 0.03 % impurity
Highest Unknown impurity ([1]; after first day): 4.44 % impurity
Impurity at ~1.12 RRT ([1]; after first day): 0.10 % impurity
Mono chloro impurity ([1]; after first day): 0.04 % impurity
Other total impurities ([1]; after first day): 0.71 % impurity
S-oxide diastereomer-1 impurity ([1]; after first day): 0.12 % impurity
S-oxide diastereomer-2 impurity ([1]; after first day): 0.17 % impurity
Total impurities ([1]; after first day): 5.58 % impurity
(Excluding Monohydroxy impurity) ([1]; after tenth day): 0.02 % impurity
Highest Unknown impurity ([1]; after tenth day): 15.04 % impurity
Impurity at ~1.12 RRT ([1]; after tenth day): 0.08 % impurity
Mono chloro impurity ([1]; after tenth day): 0.03 % impurity
Other total impurities ([1]; after tenth day): 0.85 % impurity
S-oxide diastereomer-1 impurity ([1]; after tenth day): 0.48 % impurity
S-oxide diastereomer-2 impurity ([1]; after tenth day): 0.42 % impurity
Total impurities ([1]; after tenth day): 16.91 % impurity
(Excluding Monohydroxy impurity) ([1]; after third day): 0.03 % impurity
Highest Unknown impurity ([1]; after third day): 5.34 % impurity
Impurity at ~1.12 RRT ([1]; after third day): 0.10 % impurity
Mono chloro impurity ([1]; after third day): 0.03 % impurity
Other total impurities ([1]; after third day): 0.79 % impurity
S-oxide diastereomer-1 impurity ([1]; after third day): 0.14 % impurity
S-oxide diastereomer-2 impurity ([1]; after third day): 0.20 % impurity
Total impurities ([1]; after third day): 6.59 % impurity
Impurities generated via thermal degradation ([1]; ten days): at least s-oxide diastereomer-1 impurity, s-oxide diastereomer-2 impurity, and unknown impurities are generated via thermal degradation
(Excluding Monohydroxy impurity) ([2]; 0.002% H2O2, after fifth hour): 0.03 % impurity
Highest Unknown impurity ([2]; 0.002% H2O2, after fifth hour): 0.07 % impurity
Impurity at ~1.12 RRT ([2]; 0.002% H2O2, after fifth hour): 0.09 % impurity
Mono chloro impurity ([2]; 0.002% H2O2, after fifth hour): 0.03 % impurity
Other total impurities ([2]; 0.002% H2O2, after fifth hour): 0.82 % impurity
S-oxide diastereomer-1 impurity ([2]; 0.002% H2O2, after fifth hour): 4.11 % impurity
S-oxide diastereomer-2 impurity ([2]; 0.002% H2O2, after fifth hour): 5.02 % impurity
Total impurities ([2]; 0.002% H2O2, after fifth hour): 10.14 % impurity
(Excluding Monohydroxy impurity) ([2]; 0.002% H2O2, after first hour): 0.03 % impurity
Highest Unknown impurity ([2]; 0.002% H2O2, after first hour): 0.07 % impurity
Impurity at ~1.12 RRT ([2]; 0.002% H2O2, after first hour): 0.10 % impurity
Mono chloro impurity ([2]; 0.002% H2O2, after first hour): 0.04 % impurity
Other total impurities ([2]; 0.002% H2O2, after first hour): 0.31 % impurity
S-oxide diastereomer-1 impurity ([2]; 0.002% H2O2, after first hour): 1.20 % impurity
S-oxide diastereomer-2 impurity ([2]; 0.002% H2O2, after first hour): 1.47 % impurity
Total impurities ([2]; 0.002% H2O2, after first hour): 3.20 % impurity
(Excluding Monohydroxy impurity) ([2]; 0.002% H2O2, after fourth hour): 0.02 % impurity
Highest Unknown impurity ([2]; 0.002% H2O2, after fourth hour): 0.07 % impurity
Impurity at ~1.12 RRT ([2]; 0.002% H2O2, after fourth hour): 0.09 % impurity
Mono chloro impurity ([2]; 0.002% H2O2, after fourth hour): 0.03 % impurity
Other total impurities ([2]; 0.002% H2O2, after fourth hour): 0.65 % impurity
S-oxide diastereomer-1 impurity ([2]; 0.002% H2O2, after fourth hour): 3.42 % impurity
S-oxide diastereomer-2 impurity ([2]; 0.002% H2O2, after fourth hour): 4.18 % impurity
Total impurities ([2]; 0.002% H2O2, after fourth hour): 8.45 % impurity
(Excluding Monohydroxy impurity) ([2]; 0.01% H2O2, after first hour): 0.02 % impurity
Highest Unknown impurity ([2]; 0.01% H2O2, after first hour): 3.07 % impurity
Impurity at ~1.12 RRT ([2]; 0.01% H2O2, after first hour): 0.08 % impurity
Mono chloro impurity ([2]; 0.01% H2O2, after first hour): 0.03 % impurity
Other total impurities ([2]; 0.01% H2O2, after first hour): 3.66 % impurity
S-oxide diastereomer-1 impurity ([2]; 0.01% H2O2, after first hour): 10.64 % impurity
S-oxide diastereomer-2 impurity ([2]; 0.01% H2O2, after first hour): 12.89 % impurity
Total impurities ([2]; 0.01% H2O2, after first hour): 30.36 % impurity
Impurities generated via oxidation ([2]; 0.01% H2O2 one hour or 0.002% H2O2 five hours): at least s-oxide diastereomer-1 impurity, s-oxide diastereomer-2 impurity, and unknown impurities are generated via oxidation
